Counter-ions that a name gives are not always drawn. Bounds are passed on as bounds.

Chain of BTK (Q06187 393-659): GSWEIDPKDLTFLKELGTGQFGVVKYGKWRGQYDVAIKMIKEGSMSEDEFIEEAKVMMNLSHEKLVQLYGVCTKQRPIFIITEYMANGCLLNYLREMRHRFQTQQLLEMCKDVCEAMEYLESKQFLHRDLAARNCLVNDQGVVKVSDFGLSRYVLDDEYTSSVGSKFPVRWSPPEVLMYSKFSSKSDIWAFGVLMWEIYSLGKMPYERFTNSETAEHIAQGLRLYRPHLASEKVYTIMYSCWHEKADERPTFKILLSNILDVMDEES

For this test, the target named is BTK (Homo sapiens (Human), UniProt Q06187). In words: In vitro BTK kinase activity measured by trFRET. In kind it is biochemical. The conditions noted are these: recombinant human catalytic domain (aa 393-659), 0.01 mM ATP; read-out: Btk enzyme IC50. The method, then:
In Vitro BTK Kinase Activity Measured by Time-Resolved Fluorescence Resonance Energy Transfer (trFRET)
The in-house BTK corresponds to recombinant human catalytic domain (aa 393-659), which was expressed in SF9 cells with an N-terminal his tag and purified by immobilized metal affinity chromatography. BTK was mixed with peptide substrate (biotin-TYR1, Sequence: Biotin-(Ahx)-GAEEEIYAAFFA-COOH, 0.4 μM final) at varying inhibitor concentrations in reaction buffer: 50 mM MOPSO pH 6.5, 10 mM MgCl2, 2 mM MnCl2, 2.5 mM DTT, 0.01% BSA, 0.1 mM Na3VO4 and 0.01 mM ATP. After about 60 min incubation at rt, the reaction was quenched by addition of EDTA (final concentration: 100 mM) and developed by addition of detection reagents (final approximate concentrations: 30 mM HEPES pH 7.0, 0.06% BSA, 0.006% Tween-20, 0.24 M KF, 80 ng/mL PT66K (europium labeled anti-phosphotyrosine antibody cat #61T66KLB Cisbio, Bedford, Mass.) and 0.6 μg/mL SAXL (Phycolink streptavidin-allophycocyanin acceptor, cat #PJ25S, Prozyme, San Leandro, Calif.). The developed reaction was incubated in the dark for about 60 min at rt, then read via a time-resolved fluorescence detector (Rubystar, BMG) using a 337 nm laser for excitation and monitoring emission wavelength at 665 nm. Within the linear range of the assay, the observed signal at 665 nm was directly related to phosphorylated product and can be used to calculate the IC50 values.
For `C=CC(=O)N1CCC[C@H](c2cc(Nc3cc4n(n3)CCOC4)c3ncnn3c2)C1` (single isomer, unassigned) [Example 5], the IC50 was less than 100 nM.

Consider `C=CC(=O)N1CC[C@H](c2cn3ncnc3c(Nc3cnn(C)c3)n2)C1` (single isomer, unassigned) [Example 6], for which the IC50 was less than 100 nM.

`C=CC(=O)N[C@@H]1CC[C@H](c2cc(Nc3ccn(C)n3)c3ncnn3c2)C1` (single isomer, unassigned) [Example 7]: the half-inhibitory concentration (IC50) is less than 100 nM.

For the compound `C=CC(=O)N[C@@H]1CC[C@H](c2cc(Nc3cc4n(n3)CCOC4)c3ncnn3c2)C1` (single isomer, unassigned) [Example 8 (1R,3S)], the IC50 is less than 100 nM.

For `C=CC(=O)N[C@H]1CC[C@@H](c2cc(Nc3cc4n(n3)CCOC4)c3ncnn3c2)C1` (single isomer, unassigned) [Example 8 (1S,3R)], the concentration for half-maximal inhibition (IC50) is less than 100 nM.

With `C=CC(=O)N[C@@H]1CC[C@H](c2cc(Nc3ccc(N4CCOCC4)cn3)c3ncnn3c2)C1` (single isomer, unassigned) [Example 9 (1R,3S)], the half-inhibitory concentration (IC50) was less than 100 nM.

Take `C=CC(=O)N[C@H]1CC[C@@H](c2cc(Nc3ccc(N4CCOCC4)cn3)c3ncnn3c2)C1` (single isomer, unassigned) [Example 9 (1S,3R)]: the IC50 lay within 100 to 1000 nM.

As to `C=CC(=O)N1CCC[C@@H](c2cc(Nc3cc4n(n3)CCOC4)c3ncnn3c2)C1` (single isomer, unassigned) [Example F1.24], the IC50 was 1000 to 50000 nM.

`C=CC(=O)N1CC[C@@H](c2cn3ncnc3c(Nc3cnn(C)c3)n2)C1` (single isomer, unassigned) [Example F1.25]: the concentration for half-maximal inhibition (IC50) lay within 1000 to 50000 nM.

Regarding `C=CS(=O)(=O)N1CC[C@H](c2cn3ncnc3c(Nc3ccc(OC)c(OC)c3)n2)C1` (single isomer, unassigned) [H.1], the IC50 was less than 100 nM.

For `C=CC(=O)NCc1cccc(-c2cn3ncnc3c(Nc3ccc(N4CCOCC4)cc3)n2)c1` [C.1.1], the IC50 is 1000 to 50000 nM.

In the case of `C=CC(=O)N1CCC(c2cc(Nc3ccn(C)n3)c3ncnn3c2)C1` (stereo not drawn) [Example 1, 1-(3-(8-((1-methyl-1H-pyrazol-3-yl)amino)-[1,2,4]triazolo[1,5-a]pyridin-6-yl)pyrrolidin-1-yl)prop-2-en-1-one], the IC50 was less than 100 nM.

On to `C=CC(=O)N1CCC(c2cc(Nc3ccc(OC)nn3)c3ncnn3c2)C1` (stereo not drawn) [Example 2, 1-(3-(8-(6-Methoxypyridazin-3-ylamino)-[1,2,4]triazolo[1,5-a]pyridin-6-yl)pyrrolidin-1-yl)prop-2-en-1-one trifluoroacetate], for which the IC50 was in the range of 100 to 1000 nM.

Take `C=CC(=O)N1CC[C@H](c2cc(Nc3cc4n(n3)CCOC4)c3ncnn3c2)C1` [Example 4, 1-{(R)-3-[8-(6,7-Dihydro-4H-pyrazolo[5,1-c][1,4]oxazin-2-ylamino)-[1,2,4]triazolo[1,5-a]pyridin-6-yl]-pyrrolidin-1-yl}-propenone]: the 50% inhibitory concentration (IC50) was less than 100 nM.

As to `C=CC(=O)N1CCCC(c2cc(Nc3cc4n(n3)CCOC4)c3ncnn3c2)C1` (stereo not drawn) [Example F1.30, 1-(3-(8-((6,7-dihydro-4H-pyrazolo[5,1-c][1,4]oxazin-2-yl)amino)-[1,2,4]triazolo[1,5-a]pyridin-6-yl)piperidin-1-yl)prop-2-en-1-one], the IC50 was 100 to 1000 nM.

Turning to `C=CC(=O)N1CCCC(c2cc(Nc3nc(C(C)C)no3)c3ncnn3c2)C1` (stereo not drawn) [Example F1.31, 1-(3-(8-((3-isopropyl-1,2,4-oxadiazol-5-yl)amino)-[1,2,4]triazolo[1,5-a]pyridin-6-yl)piperidin-1-yl)prop-2-en-1-one], the IC50 lay within 1000 to 50000 nM.

With `C=CC(=O)N1CCCC(c2cc(Nc3nc(C)no3)c3ncnn3c2)C1` (stereo not drawn) [Example F1.32, 1-(3-(8-((3-methyl-1,2,4-oxadiazol-5-yl)amino)-[1,2,4]triazolo[1,5-a]pyridin-6-yl)piperidin-1-yl)prop-2-en-1-one], the IC50 was in the range of 1000 to 50000 nM.

For `C=CC(=O)N1CC[C@@H](c2cc(Nc3cc4n(n3)CCOC4)c3ncnn3c2)C1` [Example F1.33, (S)-1-(3-(8-((6,7-dihydro-4H-pyrazolo[5,1-c][1,4]oxazin-2-yl)amino)-[1,2,4]triazolo[1,5-a]pyridin-6-yl)pyrrolidin-1-yl)prop-2-en-1-one], the concentration for half-maximal inhibition (IC50) lay in the range of 1000 to 50000 nM.

For `C=CC(=O)N[C@H]1CC[C@@H](c2cc(Nc3ccn(C)n3)c3ncnn3c2)C1` [Example F1.34], the 50% inhibitory concentration (IC50) was 100 to 1000 nM.

For `C=CC(=O)N[C@@H]1CCC[C@H](c2cc(Nc3ccn(C)n3)c3ncnn3c2)C1` [Example F1.35], the IC50 is less than 100 nM.

Regarding `C=CC(=O)N[C@H]1CCC[C@H](c2cc(Nc3ccn(C)n3)c3ncnn3c2)C1` [Example F1.36], the IC50 is 100 to 1000 nM.

As for `C=CC(=O)N1CC[C@@H](c2cc(Nc3ccn(C)n3)c3ncnn3c2)C1` [Example F1.37, (S)-1-(3-(8-((1-methyl-1H-pyrazol-3-yl)amino)-[1,2,4]triazolo[1,5-a]pyridin-6-yl)pyrrolidin-1-yl)prop-2-en-1-one], the 50% inhibitory concentration (IC50) was 1000 to 50000 nM.

`C=CC(=O)N1CCC(c2cn3ncnc3c(Nc3ccc4c(c3)NC(=O)CCC4)n2)C1` (stereo not drawn) [F.1, 8-((6-(1-acryloylpyrrolidin-3-yl)-[1,2,4]triazolo[1,5-a]pyrazin-8-yl)amino)-4,5-dihydro-1H-benzo[b]azepin-2(3H)-one]: the IC50 was less than 100 nM.

Regarding `C=CC(=O)NCc1cccc(-c2cn3ncnc3c(NC34CC(C3)C4)n2)c1` [F.1.1], the IC50 lay in the range of 100 to 1000 nM.

As for `C=CC(=O)Nc1cccc(-c2cn3ncnc3c(NC34CC(C3)C4)n2)c1` [F.1.2], the IC50 lay within 100 to 1000 nM.

Consider `C=CC(=O)Nc1ccccc1-c1cn2ncnc2c(NC23CC(C2)C3)n1` [F.1.3], for which the half-inhibitory concentration (IC50) lay in the range of 1000 to 50000 nM.

Consider `C=CC(=O)N1CCCC(c2cn3ncnc3c(Nc3ccc4c(c3)NC(=O)CCC4)n2)C1` (stereo not drawn) [F.1.4, 8-((6-(1-acryloylpiperidin-3-yl)-[1,2,4]triazolo[1,5-a]pyrazin-8-yl)amino)-4,5-dihydro-1H-benzo[b]azepin-2(3H)-one], for which the half-maximal inhibitory concentration (IC50) was less than 100 nM.

On to `C=CC(=O)Nc1cccc(-c2cn3ncnc3c(Nc3ccc4c(c3)NC(=O)CCC4)n2)c1` [F.1.5, N-(3-(8-((2-oxo-2,3,4,5-tetrahydro-1H-benzo[b]azepin-8-yl)amino)-[1,2,4]triazolo[1,5-a]pyrazin-6-yl)phenyl)acrylamide], for which the IC50 was less than 100 nM.

As for `C=CC(=O)N1CCC(c2cn3ncnc3c(Nc3ccc(OC)c(OC)c3)n2)C1` (stereo not drawn) [F.1.8], the concentration for half-maximal inhibition (IC50) lay within 100 to 1000 nM.

For the compound `C=CC(=O)N1CC[C@@H](c2cn3ccnc3c(Nc3ccc4c(c3)NC(=O)CCC4)n2)C1` [F.1.9, (R)-8-((6-(1-acryloylpyrrolidin-3-yl)imidazo[1,2-a]pyrazin-8-yl)amino)-4,5-dihydro-1H-benzo[b]azepin-2(3H)-one], the IC50 is less than 100 nM.

Regarding `C=CC(=O)N1CC[C@H](c2cn3ccnc3c(Nc3ccc4c(c3)NC(=O)CCC4)n2)C1` [F.1.10, (S)-8-((6-(1-acryloylpyrrolidin-3-yl)imidazo[1,2-a]pyrazin-8-yl)amino)-4,5-dihydro-1H-benzo[b]azepin-2(3H)-one], the half-inhibitory concentration (IC50) was in the range of 100 to 1000 nM.

Consider `C=CC(=O)N1CC[C@H](c2cn3ncnc3c(Nc3ccc(OC)c(OC)c3)n2)C1` [F.1.11], for which the concentration for half-maximal inhibition (IC50) is 100 to 1000 nM.

As to `C=CC(=O)N1CCC(c2cn3ncnc3c(Nc3ccc4c(c3)NC(=O)CC4)n2)C1` (stereo not drawn) [F.1.13, 7-((6-(1-acryloylpyrrolidin-3-yl)-[1,2,4]triazolo[1,5-a]pyrazin-8-yl)amino)-3,4-dihydroquinolin-2(1H)-one], the IC50 fell in the range of 100 to 1000 nM.

What is called IC50 is the midpoint of a concentration-inhibition curve.

The values above are taken from patent publication US10280184B2, “Heterocyclic kinase inhibitors” (AbbVie Inc., priority 2014, dated 2019).
